Test results: patent US5854407A, “15-hydroxy 6,9-hemiacetal erythromycin compounds” (Takeda Chemical Corporation, priority 1992, dated 1998)
Read-outs that look alike come from different tables or passages of the source.

Legend:
Gastric Motor of Dogs = assay: Effect (GMS activity) on gastric motor of dogs (strain gauge force transducer, gastric antrum, i.v.); format: in vivo, dogs (Beagles); details: for ED200: dogs; for GMS activity compared with starting compound: compared with the respective starting compounds (1) and (2); for gastrointestinal motor promoting effect: in vivo test of dogs, in words
Description: Effect (GMS activity) on Gastric Motor of Dogs was studied.
Beagles having a body weigh of about 10 kg were subjected to laparotomy under pentobarbital anesthesia, and a strain gauge force transducer was attached to the gastric antrum of each of the beagles. The beagles were used for the experiment more than 2 weeks after the operation. A lead wire of the strain gauge force transducer was connected to a recorder through an amplifier and the recorder records gastric contractions. Signals from the amplifier were supplied to a signal processor (NEC Sanei).
Each of the test compounds was dissolved in ethanol, and lactobionic acid (1 mg/mg of test compound) was added thereto, followed by dilution with physiological saline. The resulting solution was intravenously given 15 minutes after termination of the natural interdigestive migrating contractions.
The area of gastric contractions induced by administration of the test compounds was measured by use of the signal processor. Taking the area at the time that the maximum contraction of the interdigestive migrating contractions was kept for 1 minute as 100%, the dosage inducing a contraction area of 200% (ED200 value) was determined from dosage action curves.
The action (GMS activity) of the above-mentioned compounds on the gastric motor of the dogs was measured.
The measurement was carried out in a manner similar to that of Experimental Example 1.

[1] = Physicochemical nature (basicity, fat solubility)
gastrointestinal motor = assay: GMS activity of metabolites isolated from dogs; format: in vivo; details: metabolites after compound (1), dog 10 mg/kg iv
Protocol: (§1) Namely, the present inventors found an active metabolite in vivo which promoted the gastrointestinal motor function (had GMS activity), when compound (1) or (2) of 14-membered ring macrolides having the structural formula shown in Table 1 below were given to the animals. Compound (1) was intravenously given to the dogs, followed by solvent extraction from the livers 30 minutes after administration, chromatography and preparative HPLC to 15 obtain two active metabolites, compounds (3) and (4). The present inventors were able to determine that the chemical structures of these compounds were 15- and 14-hydroxyl derivatives of compound (1), respectively. Compound (2) was treated similarly to obtain corresponding compounds (7) and (8).
First, the present inventors examined whether or not metabolites promoting the gastrointestinal motor (having GMS activity) were formed in vivo when the compound (1) or (2), the 6,9-hemiacetal-erythromycin derivative known in the art, was given to the animal.
The lactobionate of the compound (1) (10 mg/kg, iv) was injected into the fore-limb of the dog, and the blood, the liver, the bile and the urine were subjected to HP-20 chromatography. After extraction with ethyl acetate, active metabolites were determined. […] The liver was collected 30 minutes after administration, and an extracted concentrated solution thereof was subjected to HP-20 chromatography. […]

mice = assay: Acute toxicity test using mice (intravenous injection); format: in vivo; details: 100 mg/kg
[2] = Metabolite formation and distribution in dogs after i.v. lactobionate of compound (1); format: in vivo; details: dog, lactobionate of compound (1) 10 mg/kg, iv
Protocol: as §1
The lactobionate of the compound (1) (10 mg/kg, iv) was injected into the fore-limb of the dog, and the blood, the liver, the bile and the urine were subjected to HP-20 chromatography. After extraction with ethyl acetate, active metabolites were determined. […] The liver was collected 30 minutes after administration, and an extracted concentrated solution thereof was subjected to HP-20 chromatography. The 80% v/v methanol/0.005N HCl fraction was extracted with ethyl acetate, and then, the extract was concentrated to obtain a powder. […]

[3] = tested on: gastrointestinal peristaltic movement; details: literature; cited from earlier work
[4] = Canis lupus familiaris, iv, Table 3, dose inducing contraction area of 200%, i.v., as lactobionic acid solution, read-out: ED200
[5] = Canis lupus familiaris, iv, Table 4, Experimental Example 2, similar to Experimental Example 1, read-out: ED200

Compound | ED200 (Gastric Motor of Dogs; [4]) | GMS activity compared with starting compound (Gastric Motor of Dogs) | gastrointestinal motor promoting effect (Gastric Motor of Dogs) | basicity and fat solubility [1] | further results
CO[C@]1(C)C[C@H](O[C@H]2[C@H](C)[C@@H](O[C@@H]3O[C@H](C)C[C@H](N(C)C(C)C)[C@H]3O)[C@@]3(C)CC(C)=C(O3)[C@H](C)[C@@H](O)[C@](C)(O)[C@@H](CCO)OC(=O)[C@@H]2C)O[C@@H](C)[C@@H]1O [Compound (3), N-demethyl-15-hydroxy-N-isopropyl-8,9-anhydroerythromycin A 6,9-hemiacetal] | 0.5 µg/kg | stronger GMS activity than the respective starting compounds | strong gastrointestinal motor promoting effect | basic fat-soluble properties | GMS activity of metabolites / fractions (gastrointestinal motor): active
CCN(C)[C@H]1C[C@@H](C)O[C@@H](O[C@@H]2[C@@H](C)[C@H](O[C@H]3C[C@@](C)(OC)[C@@H](O)[C@H](C)O3)[C@@H](C)C(=O)O[C@H](CCO)[C@@](C)(O)[C@H](O)[C@@H](C)C3=C(C)C[C@@]2(C)O3)[C@@H]1O [Compound (7), N-demethyl-15-hydroxy-N-ethyl-8,9-anhydroerythromycin A 6,9-hemiacetal] | 3.2 µg/kg | stronger GMS activity than the respective starting compounds | strong gastrointestinal motor promoting effect | basic fat-soluble properties | 
CO[C@]1(C)C[C@H](O[C@H]2[C@H](C)[C@@H](O[C@@H]3O[C@H](C)C[C@H](N(C)C(C)C)[C@H]3O)[C@@]3(C)CC(C)=C(O3)[C@H](C)[C@@H](O)[C@](C)(O)[C@@H](C(C)O)OC(=O)[C@@H]2C)O[C@@H](C)[C@@H]1O (stereo partly shown) [Compound (4), N-demethyl-14-hydroxy-N-isopropyl-8,9-anhydorerythromycin A 6,9-hemiacetal] | 0.4 µg/kg | stronger GMS activity than the respective starting compounds | strong gastrointestinal motor promoting effect | basic fat-soluble properties | GMS activity of metabolites / fractions (gastrointestinal motor): active
CCN(C)[C@H]1C[C@@H](C)O[C@@H](O[C@@H]2[C@@H](C)[C@H](O[C@H]3C[C@@](C)(OC)[C@@H](O)[C@H](C)O3)[C@@H](C)C(=O)O[C@H](C(C)O)[C@@](C)(O)[C@H](O)[C@@H](C)C3=C(C)C[C@@]2(C)O3)[C@@H]1O (stereo partly shown) [lactobionate of the compound (8)] |  |  |  |  | death in acute toxicity test (mice): no case of death was observed
CC1=C2O[C@](C)(C1)[C@H](O[C@@H]1O[C@H](C)C[C@H](N(C)C(C)C)[C@H]1O)[C@@H](C)[C@H](O[C@H]1C[C@@](C)(O)[C@@H](O)[C@H](C)O1)[C@@H](C)C(=O)O[C@H](C(C)O)[C@@](C)(O)[C@H](O)[C@H]2C (stereo partly shown) [Compound (5), 3'-O-demethyl-N-demethyl-14-hydroxy-N-isopropyl-8,9-anhydroerythromycin A 6,9-hemiacetal] |  | stronger GMS activity than the starting compound (1) |  |  | ED200 (Gastric Motor of Dogs; [5]): 0.21 µg/kg
CC[C@H]1OC(=O)[C@H](C)[C@@H](O[C@H]2C[C@@](C)(O)[C@@H](O)[C@H](C)O2)[C@H](C)[C@@H](O[C@@H]2O[C@H](C)C[C@H](N(C)C(C)C)[C@H]2O)[C@@]2(C)CC(C)=C(O2)[C@H](C)[C@@H](O)[C@]1(C)O [Compound (6)] |  | stronger GMS activity than the starting compound (1) |  |  | ED200 (Gastric Motor of Dogs; [5]): 0.26 µg/kg
CC[C@H]1OC(=O)[C@H](C)[C@@H](O[C@H]2C[C@@](C)(OC)[C@@H](O)[C@H](C)O2)[C@H](C)[C@@H](O[C@@H]2O[C@H](C)C[C@H](N(C)C(C)C)[C@H]2O)[C@@]2(C)CC(C)=C(O2)[C@H](C)[C@@H](O)[C@]1(C)O [Compound (1), reference compound] | 0.9 µg/kg |  |  |  | ED200 (Gastric Motor of Dogs; Table 4, Experimental Example 2, similar to Experimental Example 1): 0.9 µg/kg; presence in blood, liver, bile and urine [2]: largely present in the blood
CC[C@H]1OC(=O)[C@H](C)[C@@H](O[C@H]2C[C@@](C)(OC)[C@@H](O)[C@H](C)O2)[C@H](C)[C@@H](O[C@@H]2O[C@H](C)C[C@H](N(C)C)[C@H]2O)[C@](C)(O)C[C@@H](C)C(=O)[C@H](C)[C@@H](O)[C@]1(C)O [ERM A, erythromycin A] |  |  |  |  | motilin-like action / GMS activity [3]: motilin-like action promoting the gastrointestinal peristaltic movement
CC[C@H]1OC(=O)[C@H](C)[C@@H](O[C@H]2C[C@@](C)(OC)[C@@H](O)[C@H](C)O2)[C@H](C)[C@@H](O[C@@H]2O[C@H](C)C[C@H](N(C)CC)[C@H]2O)[C@@]2(C)CC(C)=C(O2)[C@H](C)[C@@H](O)[C@]1(C)O [Compound (2), reference compound] | 8 µg/kg |  |  |  | 
CCN(C)[C@H]1C[C@@H](C)O[C@@H](O[C@@H]2[C@@H](C)[C@H](O[C@H]3C[C@@](C)(OC)[C@@H](O)[C@H](C)O3)[C@@H](C)C(=O)O[C@H](C(C)O)[C@@](C)(O)[C@H](O)[C@@H](C)C3=C(C)C[C@@]2(C)O3)[C@@H]1O (stereo partly shown) [Compound (8), N-demethyl-14-hydroxy-N-ethyl-8,9-anhydroerythromycin A 6,9-hemiacetal] | 1.8 µg/kg | stronger GMS activity than the respective starting compounds | strong gastrointestinal motor promoting effect | basic fat-soluble properties | 
